Data published in patent US20040106198A1, “Inhibition of peptide cleavage in plants” (LARGE SCALE BIOLOGY CORPORATION, priority 2002, published 2004).
Numbered stars: 1 amine (or outer) side, 2 acyl side, 3 side chain; on linkers, the order of the positions; unused ones are H or OH. Square brackets hold non-standard residues; d marks the D form. Peptide text beside a SMILES is read from it. * marks the point of attachment. Sta = CC(C)C[C@H](N)[C@@H](O)CC(=O)O; pNA = O=[N+]([O-])c1ccc(N*)cc1; Suc = O=C(CCC(=O)[*:2])[*:1]; Isovaleryl = CC(C)CC(=O)*; Cbz = O=C(OCc1ccccc1)*; CK = not defined here

System: Nicotianalisin
Assay: In situ Zymogram gelatin gel assay of partially purified protease
Format: biochemical, N. benthamiana
Settings: 2 mM PMSF for 1 hr at 24° C.; partially purified fraction
Description: FIG. 2 depicts the inhibition of Nicotianalisin by PMSF protease inhibitor using Zymogram gelatin gel analysis. Plant extracts containing Nicotianalisin activity were partially purified by ion-exchange chromatography at pH 5.2, and fractions with peak protease activity were treated with or without 2 mM PMSF for 1 hr at 24° C. Following treatment, aliquots were removed and inhibitory activity assessed on Zymogram gels.
The in situ protease gel assay was carried out in pre-cast 10% Zymogram gels (Invitrogen, Carlsbad, Calif.) as per manufacturer's protocols.
Following the initial observation that the plant protease activity was inhibited by both chymostatin and potato PI-I (FIG. 1), experiments were initiated to partially purify the protease from N. benthamiana leaves. Plants were grown and IF extracts were prepared as described above. The IF was filtered through a 0.8μ Sartorius GF membrane to remove most of the Ribulose-1,5-bisphosphate carboxylase/oxygenase (Rubisco) and green pigments. The diafiltered extract was separated further by SP sepharose (Pharmacia) ion exchange chromatography at pH 5.2.

Molecule	reduction of protease activity on Zymogram gelatin gel
O=S(=O)(F)Cc1ccccc1 [PMSF, phenylmethanesulfonyl fluoride]	significant reduction of protease activity

System: Nicotianalisin
Assay: Protease inhibitor study in plant interstitial fluid (IF), N-Suc-AAPL-p-NA hydrolysis
Format: biochemical, N. benthamiana
Settings: not given
Description: To further classify the protease activity in the plant IF extract, protease inhibitor studies were performed. Standard inhibitors from different classes of proteases were used. An aliquot of the plant IF was incubated with each inhibitor for 30 min at 24° C., and the free enzyme was incubated under the same conditions without the inhibitor to serve as the control. The protease activity after the inhibition was measured and compared to the control.
To further characterize the plant proteolytic activity, experiments were initiated to partially purify the plant protease. In order to purify the protease, enzyme assays were developed and utilized. Proteolytic activity was monitored by the hydrolysis of a synthetic substrate, hydrolysis of a protein substrate and/or by an in situ gel procedure. […] The absorbance of the p-nitroaniline (p-NA) produced was measured at 410 nm (Erlanger, Kokowsky, and Cohen, 1961; Nakajima et al., 1979). The activity unit was defined as the amount of the enzyme capable of producing 1 nanomole of p-NA per min under the conditions of the experiment with an absorption coefficient of […] (Erlanger, Kokowsky, and Cohen, 1961; Nakajima et al., 1979). The rate of hydrolysis of N-Succinyl-Ala-Ala-Pro-Phe-thiobenzylester SEQ ID NO: in 10% DMSO and 4,4′-dithiodipyridine was monitored at […] using an extinction coefficient of 19800 cm^−1 M^−1 (Barrett and Kirschke, 1981). General proteolytic activity was measured with 2.0% azocasein or 2.0% azoalbumin and Fluorescein Isothiocyanate Casein (FITC-casein; (Twining, 1984)). The reaction was started by addition of 10 μl of protease solution to 70 μl of reaction mixture (100 mM buffer Tris-HCl pH 7.0 containing 0.04% FTC-casein, 0.5 mM DDT, 2 mM CaCl2) and incubation for 1 hr at 37° C. The reaction was stopped by addition of 80 μl of 10% TCA and incubation for 15 min at −20° C. The mixture was centrifuged for 10 min at 10,000×g at 4° C. 10 μl of the supernatant solution was added to 150 μl Tris-HCl (0.5 M, pH 8.5), and fluorescence was measured at an excitation wavelength of 490 nm and an emission wavelength of 525 nm using a fluorescence plate reader ((Erlanger, Kokowsky, and Cohen, 1961; Nakajima et al., 1979), Molecular Devices).

Molecule	% Inhibition
Cc1ccc(S(=O)(=O)N[C@@H](CCCCN)C(=O)CCl)cc1 [TLCK]	0%

Same assay, conditions: IF from viral vector-infected plants incubated with inhibitor 30 min at 24° C.; 0.3 mM N-Suc-AAPL-p-NA

Molecule	% Inhibition
Aprotinin	46%
CC(C)C[C@H](NC(=O)[C@@H](NC(=O)N[C@@H](Cc1ccccc1)C(=O)O)[C@@H]1CCN=C(N)N1)C(=O)N[C@H](C=O)Cc1ccccc1 [Chymostatin]	100%
CC(C)C[C@H](NC(=O)[C@H]1O[C@@H]1C(=O)O)C(=O)NCCCCN=C(N)N [E-64]	5%
Cc1ccc(S(=O)(=O)N[C@@H](Cc2ccccc2)C(=O)CCl)cc1 [TPCK]	38%
CC(C)C[C@H](NC(=O)N[C@H](C(=O)N[C@@H](CCC(N)=O)C(=O)N[C@@H](C)C=O)[C@@H]1CCNC(=N)N1)C(=O)O [Elastinal]	41%
CC(=O)N[C@@H](CC(C)C)C(=O)N[C@@H](CC(C)C)C(=O)N[C@H](C=O)CCCNC(=N)N [Leupeptin]	18%
O=c1oc(Cl)c(Cl)c2ccccc12 [3-4 DCI]	100%
CC(C)C[C@@H](N)[C@H](O)C(=O)N[C@H](C(=O)N[C@H](C(=O)N[C@@H](CC(=O)O)C(=O)O)C(C)C)C(C)C [Amastatin]	5%
N-CBZ-GGF-CK: irreversible serine protease inhibitor, active site titrant (Cbz-Gly-Gly-Phe-{CK}; reading uncertain; also: printed as N-CBZ-GGF-CK)	70%
O=S(=O)(F)Cc1ccccc1 [PMSF, phenylmethanesulfonyl fluoride]	100%
O=C(O)CN(CCN(CC(=O)O)CC(=O)O)CC(=O)O [EDTA]	5%
c1cnc2c(c1)ccc1cccnc12 [1-10 Phenantrolin]	11%
CC(C)CC(=O)N[C@H](C(=O)N[C@H](C(=O)N[C@@H](CC(C)C)[C@@H](O)CC(=O)N[C@@H](C)C(=O)N[C@@H](CC(C)C)[C@@H](O)CC(=O)O)C(C)C)C(C)C [Pepstatin A] (Isovaleryl-VV[Sta]A[Sta]-OH)	6%

System: plant protease
Assay: In vitro stability of recombinant hGH in IF with protease inhibitors (Western)
Format: biochemical, N. benthamiana
Settings: 24 hours at 24° C. followed by 120 hours at 5° C.; anti-hGH Western
Description: FIG. 1 depicts the in vitro stability of expressed recombinant human growth hormone protein (hereafter “hGH”) in the interstitial fluid (hereafter “IF”) following the addition of protease inhibitors. Recombinant hGH protein was expressed in N. benthamiana using a tobacco mosaic virus (hereafter “TMV”) vector expression system. IF was prepared from plant leaves at 9 days post-inoculation and incubated for 24 hours at 24° C. followed by 120 hours at 5° C. with or without the addition of protease inhibitors. Fifteen microliters of the IF extract was separated by SDS-PAGE and the gel prepared for Western analysis. The levels of hGH protein in the IF of the time zero control (lane a), in absence of inhibitor (lane b), and in the presence of protease inhibitors chymostatin (lane c) and PI-I (lane d), were detected using anti-hGH antibody.
When a plant viral vector expression system (Kumagai et al., 1995; McCormick et al., 1999) was utilized to express the secreted, mammalian recombinant protein, hGH, significant degradation of the target protein was observed. […]
Aliquots of the plant IF fraction were separated by SDS-PAGE and levels of hGH protein were detected by immunoblot analysis using anti-hGH polyclonal antibody (Sigma, St. Louis, Mo.). […]
At zero time, prior to the addition of any inhibitors, both full length and hGH cleavage products were detected (FIG. 1). […]

Molecule	inhibition of degradation of hGH protein in IF extract
CC(C)C[C@H](NC(=O)[C@@H](NC(=O)N[C@@H](Cc1ccccc1)C(=O)O)[C@@H]1CCN=C(N)N1)C(=O)N[C@H](C=O)Cc1ccccc1 [Chymostatin]	inhibition of further degradation of the intact hGH protein was observed

System: CD34+
Assay: CD34+ proliferation assays
Format: cell-based
Settings: proteins purified from plants
Description: The vectors were used to inoculate plant leaves of different sets of plants as described in the examples above. Both plant homogenates and interstitial fluid were extracted as described above. hSCF and pSCF were each purified from 27 plants to yield 0.85 mg (˜15 mg/kg) and 2.5 mg (˜45 mg/kg) of protein respectively.

Molecule	biological activity in CD34+ proliferation assays
hSCF: human Stem Cell growth Factor expressed in plants from GENEWARE vector	biologically active

System: Nicotianalisin
Assay: Hydrolysis of synthetic 4-nitroanilide peptide substrates by purified protease
Settings: not given

Molecule	preferential cleavage of synthetic peptide substrates
N-Succinyl-Alanine-Alanine-Proline-Phenylalanine-para-nitroanilide [N-Suc-AAPF-pNA]	preferentially cleaved
N-Succinyl-Alanine-Alanine-Proline-Leucine-para-nitroanilide [N-Suc-AAPL-pNA]	preferentially cleaved
N-Suc-AAPM-pNA: synthetic 4-nitroanilide peptide substrate (SMILES CSCC[C@H](NC(=O)[C@@H]1CCCN1C(=O)[C@H](C)NC(=O)[C@H](C)NC(=O)CCC(=O)O)C(=O)Nc1ccc([N+](=O)[O-])cc1)	preferentially cleaved
